Measurements as given in patent US8946282B2, “Indolin-2-one derivatives as protein kinase inhibitors” (Annji Pharmaceutical Co., Ltd., priority 2012, dated 2015).

Assays:
[1] = tested on: HepG2 human hepatocellular carcinoma cells; test: anti-proliferation, SRB colorimetric assay, HepG2; format: cell-based; settings: concentration required for 50% growth inhibition, read-out: IC50 (μM, mean ± S.D.)
Description: HCT116 human colorectal carcinoma cells (Table 3), HepG2 human hepatocellular carcinoma cells (Table 4), and MV4-11 human acute myelomonocytic leukemia cells (Table 5).

FLT-3 = target: T1, FLT-3 (Homo sapiens, UniProt P36888); test: radioisotope-based P81 filter-binding assay, FLT-3 kinase; format: biochemical; settings: averaged from two independent dose-response curves; read-out: Enzyme assay IC50 FLT-3
T1 sequence (P36888 27-993): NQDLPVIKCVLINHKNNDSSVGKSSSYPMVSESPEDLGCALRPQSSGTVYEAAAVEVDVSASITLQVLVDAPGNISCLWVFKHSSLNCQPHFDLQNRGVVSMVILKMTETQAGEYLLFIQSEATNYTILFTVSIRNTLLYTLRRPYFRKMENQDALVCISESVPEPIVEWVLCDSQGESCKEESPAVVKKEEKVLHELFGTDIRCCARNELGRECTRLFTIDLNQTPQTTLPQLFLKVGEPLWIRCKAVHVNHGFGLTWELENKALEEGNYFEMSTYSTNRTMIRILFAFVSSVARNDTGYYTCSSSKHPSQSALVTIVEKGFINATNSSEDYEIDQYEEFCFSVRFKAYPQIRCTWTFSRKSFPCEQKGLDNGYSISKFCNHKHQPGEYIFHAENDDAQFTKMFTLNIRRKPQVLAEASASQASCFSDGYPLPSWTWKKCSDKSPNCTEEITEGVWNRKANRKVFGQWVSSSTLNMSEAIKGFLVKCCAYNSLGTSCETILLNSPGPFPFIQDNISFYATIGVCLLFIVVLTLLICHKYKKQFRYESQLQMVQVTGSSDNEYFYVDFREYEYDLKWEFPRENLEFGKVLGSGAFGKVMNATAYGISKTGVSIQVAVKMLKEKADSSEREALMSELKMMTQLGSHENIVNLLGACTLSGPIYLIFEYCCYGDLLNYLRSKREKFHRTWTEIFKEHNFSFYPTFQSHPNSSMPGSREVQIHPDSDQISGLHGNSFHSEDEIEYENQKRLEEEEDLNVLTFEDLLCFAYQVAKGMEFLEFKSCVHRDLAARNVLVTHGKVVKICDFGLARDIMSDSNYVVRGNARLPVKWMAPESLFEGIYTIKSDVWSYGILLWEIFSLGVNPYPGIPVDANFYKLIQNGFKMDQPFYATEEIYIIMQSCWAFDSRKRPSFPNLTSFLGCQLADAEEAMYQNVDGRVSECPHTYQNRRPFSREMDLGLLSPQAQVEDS
Experimental: (§1) Compounds of formula (I)-(IV) were evaluated for abilities in inhibiting protein kinases aurora B and FLT-3 activity using radioisotope-based P81 filter-binding assay (Table 1).

aurora B = aurora B (Homo sapiens, UniProt Q96GD4); test: radioisotope-based P81 filter-binding assay, aurora B kinase; format: biochemical; settings: averaged from two independent dose-response curves; read-out: Enzyme assay IC50 Aur B
Experimental: as §1

[2] = tested on: MV4-11 human acute myelomonocytic leukemia cells; test: anti-proliferation, SRB colorimetric assay, MV4-11; format: cell-based; settings: concentration required for 50% growth inhibition
Experimental: HCT116 human colorectal carcinoma cells (Table 3), HepG2 human hepatocellular carcinoma cells (Table 4), and MV4-11 human acute myelomonocytic leukemia cells (Table 5). Cells were treated with the test compound and the concentration required for 50% growth inhibition (IC50) determined by sulfomodamine B (SRB) colorimetric assay.

[3] = tested on: A549 human lung carcinoma cells; test: anti-proliferation, SRB colorimetric assay, A549; format: cell-based; settings: concentration required for 50% growth inhibition, read-out: IC50 (μM, mean ± S.D.)

Chain of aurora B (Q96GD4 whole entry): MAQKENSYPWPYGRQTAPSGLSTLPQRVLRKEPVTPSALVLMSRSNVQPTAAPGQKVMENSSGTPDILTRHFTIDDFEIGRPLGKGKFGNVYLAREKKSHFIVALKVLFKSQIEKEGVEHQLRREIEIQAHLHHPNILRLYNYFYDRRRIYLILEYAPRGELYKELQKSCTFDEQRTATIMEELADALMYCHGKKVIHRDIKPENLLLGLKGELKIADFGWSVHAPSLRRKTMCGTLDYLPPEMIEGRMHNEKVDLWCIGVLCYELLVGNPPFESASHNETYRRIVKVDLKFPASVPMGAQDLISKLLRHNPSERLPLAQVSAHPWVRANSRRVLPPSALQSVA

Row | IC50 [1] [µM] | IC50 (FLT-3) [nM] | IC50 (aurora B) [nM] | melting point | IC50 [2] [nM] | IC50 [3] [µM] | Compound
1 | 0.93 ± 0.01 | > 1000 | 18.4 | 290 to 295 °C (dec.) | – | – | Cc1ccc(C(=O)NC(=O)Nc2ccc3c(c2)NC(=O)/C3=C\c2ccc[nH]2)cc1 [D29, (Z)—N-(3-((1H-pyrrol-2-yl)methylene)-2-oxoindolin-6-ylcarbamoyl)-4-methylbenzamide]
2 | 0.56 ± 0.02 | 86.6 | 179 | > 300 °C | 12.8 | – | Cc1cc(C)c(/C=C2\C(=O)Nc3cc(NC(=O)c4c[nH]cc(-c5ccc(F)cc5)c4=O)ccc32)[nH]1 [D140, (Z)—N-(3-((3,5-dimethyl-1H-pyrrol-2-yl)methylene)-2-oxoindolin-6-yl)-5-(4-fluorophenyl)-4-oxo-1,4-dihydropyridine-3-carboxamide]
3 | 0.86 ± 0.02 | > 1000 | 40.9 | > 300 °C | – | – | O=C(NC(=O)c1ccc(C(F)(F)F)cc1)Nc1ccc2c(c1)NC(=O)/C2=C\c1ccc[nH]1 [D27, (Z)—N-(3-((1H-pyrrol-2-yl)methylene)-2-oxoindolin-6-ylcarbamoyl)-4-(trifluoromethyl)benzamide]
4 | 0.63 ± 0.04 | > 1000 | 7.7 | 295 to 300 °C (dec.) | 1.13 | – | O=C(NC(=O)c1ccc(Cl)c(Cl)c1)Nc1ccc2c(c1)NC(=O)/C2=C\c1ccc[nH]1 [D26, (Z)—N-(3-((1H-pyrrol-2-yl)methylene)-2-oxoindolin-6-ylcarbamoyl)-3,4-dichlorobenzamide]
5 | 0.12 ± 0.07 | 51.6 | 10.7 | 270 to 275 °C | – | – | Cc1[nH]c(/C=C2\C(=O)Nc3cc(NC(=O)NC(=O)c4ccc(Cl)c(C(F)(F)F)c4)ccc32)c(C)c1C(=O)O [D36, (Z)-5-((6-(3-(4-chloro-3-(trifluoromethyl)benzoyl)ureido)-2-oxoindolin-3-ylid-ene)methyl)-2,4-dimethyl-1H-pyrrol-3-carboxylic acid]
6 | 0.96 ± 0.03 | 334 | 14.9 | – | 6.13 | – | COc1ccc(C(=O)NC(=O)Nc2ccc3c(c2)NC(=O)/C3=C\c2ccc[nH]2)cc1 [D15]
7 | 0.63 ± 0.02 | 134 | 159 | 285 to 290 °C (dec.) | – | – | CN(C)c1ccc(C(=O)NC(=O)Nc2ccc3c(c2)NC(=O)/C3=C\c2ccc[nH]2)cc1 [D31, (Z)—N-(3-((1H-pyrrol-2-yl)methylene)-2-oxoindolin-6-ylcarbamoyl)-4-(dimethylamino)benzamide]
8 | 0.89 ± 0.03 | > 10000 | 5.3 | 290 to 295 °C (dec.) | – | – | O=C(NC(=O)c1ccccc1)Nc1ccc2c(c1)NC(=O)/C2=C\c1ccc[nH]1 [D24, (Z)—N-(3-((1H-pyrrol-2-yl)methylene)-2-oxoindolin-6-ylcarbamoyl)benzamide]
9 | – | 38.1 | 128 | > 300 °C | 1.83 | 0.45 ± 0.07 | O=C1Nc2cc(NC(=O)c3c[nH]cc(-c4ccc(F)cc4)c3=O)ccc2/C1=C/c1ccc[nH]1 [D129, (Z)—N-(3-((1H-pyrrol-2-yl)methylene)-2-oxoindolin-6-yl)-5-(4-fluorophenyl)-4-oxo-1,4-dihydropyridine-3-carboxamide]
10 | 0.65 ± 0.05 | 506 | 3.1 | > 300 °C | – | – | Cc1[nH]c(/C=C2\C(=O)Nc3cc(NC(=O)NC(=O)c4ccc(Cl)cc4)ccc32)c(C)c1C(=O)O [D33, (Z)-5-((6-(3-(4-chlorabenzoyl)ureido)-2-oxoindolin-3-ylidene)-methyl)-2,4-dimethyl-1H-pyrrole-3-carboxylic acid]
11 | 0.09 ± 0.04 | 2.4 | 1.6 | – | – | – | Cc1[nH]c(/C=C2\C(=O)Nc3cc(NC(=O)NC(=O)c4ccc(Cl)c(C(F)(F)F)c4)ccc32)c(C)c1CCC(=O)O [D37, (Z)-3-(5-((6-(3-(4-chloro-3-(trifluoromethyl)benzoyl)ureido)-2-oxo-indolin-3-ylidene)methyl)-2,4-dimethyl-1H-pyrrol-3-yl)propanoic acid]
12 | – | – | 25 | – | – | 0.69 ± 0.05 | O=C(CC(=O)Nc1ccc2c(c1)NC(=O)/C2=C\c1ccc[nH]1)Nc1ccc(F)cc1 [D75, (Z)—N^1-(3-((1H-pyrrol-2-yl)methylene)-2-oxoindolin-6-yl)-N^3-(4-fluorophenyl)malonamide]
13 | 0.94 ± 0.03 | 676 | 6.5 | 280 to 285 °C (dec.) | 6.14 | – | O=C(NC(=O)c1ccc(Cl)cc1)Nc1ccc2c(c1)NC(=O)/C2=C\c1ccc[nH]1 [D25, (Z)—N-(3-((1H-pyrrol-2-yl)methylene)-2-oxoindolin-6-ylcarbonamoyl)-4-chlorobenzamide]
14 | 0.87 ± 0.05 | 113 | 2.7 | – | – | 0.83 ± 0.04 | Cc1[nH]c(/C=C2\C(=O)Nc3cc(NC(=O)N4CCN(C5CC5)C4=O)ccc32)c(C)c1CC(=O)O [D97, (Z)-2-(5-((6-(3-cyclopropyl-2-oxoimidazolidine-1-carboxamido)-2-oxoindolin-3-ylidene)methyl)-2,4-dimethyl-1H-pyrrol-3-yl)acetic acid]
15 | 0.86 ± 0.02 | – | 29.8 | 276 to 281 °C (dec.) | – | – | COc1cc(OC)cc(C(=O)NC(=O)Nc2ccc3c(c2)NC(=O)/C3=C\c2ccc[nH]2)c1 [D30]
16 | – | > 1000 | 209 | > 300 °C | 12.6 | – | COc1ccc(-n2cccc(C(=O)Nc3ccc4c(c3)NC(=O)/C4=C\c3ccc[nH]3)c2=O)cc1 [D106, (Z)—N-(3-((1H-pyrrol-2-yl)methylene)-2-oxoindolin-6-yl)-1-(4-methoxyphenyl)-2-oxo-1,2-dihydropyridine-3-carboxamide]
17 | – | 535 | 138 | > 300 °C | 6.69 | – | O=C1Nc2cc(NC(=O)c3cccn(-c4ccccc4F)c3=O)ccc2/C1=C/c1ccc[nH]1 [D115]
18 | – | 37.9 | 237 | > 300 °C | 0.97 | – | O=C1Nc2cc(NC(=O)c3c[nH]cc(-c4ccc(F)cc4)c3=O)c(F)cc2/C1=C/c1ccc[nH]1 [D137, (Z)—N-(3-((1H-pyrrol-2-yl)methylene)-5-fluoro-2-oxoindolin-6-yl)-5-(4-fluorophenyl)-4-oxo-1,4-dihydropyridine-3-carboxamide]
19 | – | 27.7 | 38.8 | > 300 °C | 7.18 | 0.49 ± 0.03 | O=C1Nc2cc(NC(=O)c3c[nH]cc(-c4ccccc4)c3=O)ccc2/C1=C/c1ccc[nH]1 [D127]
20 | – | 91.2 | 251 | > 300 °C | 1.55 | – | O=C1Nc2cc(NC(=O)c3cccn(-c4cccc(Cl)c4)c3=O)ccc2/C1=C/c1ccc[nH]1 [D114]

Row | Compound | IC50 [1] [µM] | IC50 (FLT-3) [nM] | IC50 (aurora B) [nM] | melting point | IC50 [2] [nM] | IC50 [3] [µM]
21 | COc1ccc(C(=O)NC(=O)Nc2ccc3c(c2)NC(=O)/C3=C\c2[nH]c(C)c(C(=O)O)c2C)cc1 [D41, (Z)-5-((6-(3-(4-methoxybenzoyl)ureido)-2-oxoindolin-3-ylidene)-methyl)-2,4-di-methyl-1H-pyrrole-3-carboxylic acid] | 0.73 ± 0.13 | 180 | 1.9 | – | – | 0.48 ± 0.05
